Blank lines part the entries; values can stand above or below the molecule they belong to.
How the values were obtained:
[1] = biological target: Fibroblast growth factor receptor 2 (Homo sapiens) (UniProt P21802); experiment: Selectivity interaction (Kinase panel (Z-LYTE Assay)) EUB0001632a FGFR2; settings: at 10 µM
[2] = biological target: Protein kinase C delta type (Homo sapiens) (UniProt Q05655); experiment: Selectivity interaction (KinomeScan (DiscoverX)) EUB0000666a PRKCD; settings: at 10 µM
[3] = biological target: RAF proto-oncogene serine/threonine-protein kinase (Homo sapiens) (UniProt P04049); experiment: Selectivity interaction (Kinase panel (Eurofins)) EUB0001564a RAF1; settings: at 1 µM
[4] = biological target: Casein kinase I isoform alpha (Homo sapiens, UniProt P48729); experiment: Selectivity interaction (KinomeScan (DiscoverX)) EUB0000607a CSNK1A1; settings: at 10 µM
[5] = biological target: Cyclin-dependent kinase 18 (Homo sapiens) (UniProt Q07002); experiment: Selectivity interaction (KinomeScan (DiscoverX)) EUB0000607a CDK18; settings: at 10 µM
[6] = biological target: T1, Megakaryocyte-associated tyrosine-protein kinase (Homo sapiens) (UniProt P42679); experiment: Selectivity interaction (KinomeScan (DiscoverX)) EUB0000607a MATK; settings: at 10 µM
T1 sequence (whole entry): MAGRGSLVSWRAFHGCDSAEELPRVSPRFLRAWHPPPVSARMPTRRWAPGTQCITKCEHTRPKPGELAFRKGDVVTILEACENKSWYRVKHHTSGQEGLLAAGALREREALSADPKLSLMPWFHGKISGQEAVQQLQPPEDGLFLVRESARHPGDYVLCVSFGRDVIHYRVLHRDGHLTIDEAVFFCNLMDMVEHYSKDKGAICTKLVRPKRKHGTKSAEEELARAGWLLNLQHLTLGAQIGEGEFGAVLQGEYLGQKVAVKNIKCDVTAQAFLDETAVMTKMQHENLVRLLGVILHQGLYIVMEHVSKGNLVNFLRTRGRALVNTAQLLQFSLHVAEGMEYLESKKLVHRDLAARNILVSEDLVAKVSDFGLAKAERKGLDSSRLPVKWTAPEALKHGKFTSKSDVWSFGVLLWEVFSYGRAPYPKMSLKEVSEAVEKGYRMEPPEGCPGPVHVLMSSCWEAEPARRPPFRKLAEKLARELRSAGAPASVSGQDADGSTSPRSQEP

[7] = biological target: T2, Aurora kinase A (Homo sapiens) (UniProt O14965); experiment: Selectivity interaction (KinomeScan (DiscoverX)) EUB0000607a STK6; settings: at 10 µM
T2 sequence (whole entry): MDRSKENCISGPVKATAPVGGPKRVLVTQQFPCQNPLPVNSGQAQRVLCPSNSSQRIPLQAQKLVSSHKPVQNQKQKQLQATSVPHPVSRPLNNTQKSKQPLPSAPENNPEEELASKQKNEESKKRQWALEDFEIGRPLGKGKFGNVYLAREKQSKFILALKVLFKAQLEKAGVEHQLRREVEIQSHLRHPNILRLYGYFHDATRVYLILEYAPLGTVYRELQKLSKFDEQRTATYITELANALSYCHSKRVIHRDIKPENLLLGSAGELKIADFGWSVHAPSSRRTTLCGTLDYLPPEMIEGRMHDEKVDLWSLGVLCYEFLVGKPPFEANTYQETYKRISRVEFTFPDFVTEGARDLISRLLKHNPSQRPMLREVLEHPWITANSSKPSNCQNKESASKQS

[8] = biological target: Ephrin type-A receptor 5 (Homo sapiens) (UniProt P54756); experiment: Selectivity interaction (Upstate Kinase Profiler service (Millipore)) EUB0000056c EPHA5; settings: at 1 µM
[9] = biological target: Homeodomain-interacting protein kinase 2 (Homo sapiens, UniProt Q9H2X6); experiment: Selectivity interaction (Upstate Kinase Profiler service (Millipore)) EUB0000056c HIPK2; settings: at 1 µM
[10] = biological target: Mitogen-activated protein kinase 3 (Homo sapiens, UniProt P27361); settings: at 10 µM
[11] = biological target: Tyrosine-protein kinase CSK (Homo sapiens) (UniProt P41240); experiment: Selectivity interaction (ActivX KiNativ screen (kinase selectivity in THP-1 cell lysates)) EUB0000639a CSK; assay type: subcellular; settings: lysate, at 0.04 µM
[12] = biological target: MAP kinase-interacting serine/threonine-protein kinase 2 (Homo sapiens, UniProt Q9HBH9); experiment: Selectivity interaction (ProQinase) EUB0000171b MKNK2
[13] = biological target: T3, Tyrosine-protein kinase TXK (Homo sapiens) (UniProt P42681); experiment: Selectivity interaction (KinomeScan (DiscoverX)) EUB0001049a TXK; settings: at 1 µM
T3 sequence (whole entry): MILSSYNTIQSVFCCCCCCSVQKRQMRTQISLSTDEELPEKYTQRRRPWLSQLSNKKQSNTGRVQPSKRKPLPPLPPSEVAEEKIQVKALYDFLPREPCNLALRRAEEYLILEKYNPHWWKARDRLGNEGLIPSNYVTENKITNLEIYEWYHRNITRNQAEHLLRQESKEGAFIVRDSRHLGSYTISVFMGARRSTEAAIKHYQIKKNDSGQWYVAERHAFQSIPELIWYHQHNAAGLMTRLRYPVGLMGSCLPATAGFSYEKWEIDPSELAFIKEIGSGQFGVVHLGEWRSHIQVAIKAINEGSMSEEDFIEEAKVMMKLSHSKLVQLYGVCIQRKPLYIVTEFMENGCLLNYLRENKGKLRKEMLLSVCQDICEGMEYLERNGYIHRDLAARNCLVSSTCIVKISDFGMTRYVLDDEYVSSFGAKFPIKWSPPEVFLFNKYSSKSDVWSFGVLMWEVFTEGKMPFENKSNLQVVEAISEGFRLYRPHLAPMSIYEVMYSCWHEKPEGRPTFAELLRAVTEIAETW

[14] = biological target: Interleukin-1 receptor-associated kinase 1 (Homo sapiens) (UniProt P51617); experiment: Selectivity interaction (Ambit KINOMEscan and KiNATiv profiling in Jurkat cells) EUB0000090b IRAK1; assay type: cell-based; settings: at 1 µM
[15] = biological target: cAMP-dependent protein kinase catalytic subunit beta (Homo sapiens) (UniProt P22694); experiment: Selectivity interaction (KinomeScan (DiscoverX)) EUB0001079a PRKACB; settings: at 1 µM
[16] = Selectivity interaction (KinomeScan (DiscoverX)) EUB0000092b CDK2H; settings: at 10 µM
[17] = biological target: AP2-associated protein kinase 1 (Homo sapiens, UniProt Q2M2I8); settings: at 10 µM
[18] = biological target: Serine/threonine-protein kinase PLK3 (Homo sapiens, UniProt Q9H4B4); settings: at 10 µM
[19] = biological target: Tyrosine-protein kinase Fgr (Homo sapiens) (UniProt P09769); settings: at 10 µM
Tyrosine-protein kinase Fgr (Homo sapiens), sequence (P09769 2-529 limits assumed): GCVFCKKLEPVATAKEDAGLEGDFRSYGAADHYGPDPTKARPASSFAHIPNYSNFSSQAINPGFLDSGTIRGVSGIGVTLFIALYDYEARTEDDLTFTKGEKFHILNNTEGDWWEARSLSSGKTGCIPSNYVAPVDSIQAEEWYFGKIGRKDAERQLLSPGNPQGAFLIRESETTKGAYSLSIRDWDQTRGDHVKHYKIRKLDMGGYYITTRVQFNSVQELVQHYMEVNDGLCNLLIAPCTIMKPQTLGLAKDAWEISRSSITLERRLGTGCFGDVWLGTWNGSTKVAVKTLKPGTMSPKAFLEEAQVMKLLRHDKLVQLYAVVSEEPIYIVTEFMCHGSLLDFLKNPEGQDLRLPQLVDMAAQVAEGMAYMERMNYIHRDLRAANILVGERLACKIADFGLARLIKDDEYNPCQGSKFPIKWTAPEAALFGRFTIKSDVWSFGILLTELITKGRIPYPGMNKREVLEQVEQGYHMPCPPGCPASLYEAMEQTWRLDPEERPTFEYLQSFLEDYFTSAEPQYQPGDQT

MAP kinase-interacting serine/threonine-protein kinase 2, sequence (Q9HBH9 whole entry, looked up): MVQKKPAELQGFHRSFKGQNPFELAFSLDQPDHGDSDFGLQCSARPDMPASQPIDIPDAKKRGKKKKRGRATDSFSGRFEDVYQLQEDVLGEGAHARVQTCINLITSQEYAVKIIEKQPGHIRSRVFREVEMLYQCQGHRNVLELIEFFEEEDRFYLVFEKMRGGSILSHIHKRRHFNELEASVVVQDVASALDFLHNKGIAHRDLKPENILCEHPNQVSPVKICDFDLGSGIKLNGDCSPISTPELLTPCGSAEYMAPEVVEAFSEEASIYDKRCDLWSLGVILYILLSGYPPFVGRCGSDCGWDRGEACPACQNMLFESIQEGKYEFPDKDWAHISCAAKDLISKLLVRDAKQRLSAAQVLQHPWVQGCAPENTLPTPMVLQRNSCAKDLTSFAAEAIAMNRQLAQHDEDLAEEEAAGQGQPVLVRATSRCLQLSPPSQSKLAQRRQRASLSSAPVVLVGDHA
Ephrin type-A receptor 5 (Homo sapiens), sequence (P54756 whole entry): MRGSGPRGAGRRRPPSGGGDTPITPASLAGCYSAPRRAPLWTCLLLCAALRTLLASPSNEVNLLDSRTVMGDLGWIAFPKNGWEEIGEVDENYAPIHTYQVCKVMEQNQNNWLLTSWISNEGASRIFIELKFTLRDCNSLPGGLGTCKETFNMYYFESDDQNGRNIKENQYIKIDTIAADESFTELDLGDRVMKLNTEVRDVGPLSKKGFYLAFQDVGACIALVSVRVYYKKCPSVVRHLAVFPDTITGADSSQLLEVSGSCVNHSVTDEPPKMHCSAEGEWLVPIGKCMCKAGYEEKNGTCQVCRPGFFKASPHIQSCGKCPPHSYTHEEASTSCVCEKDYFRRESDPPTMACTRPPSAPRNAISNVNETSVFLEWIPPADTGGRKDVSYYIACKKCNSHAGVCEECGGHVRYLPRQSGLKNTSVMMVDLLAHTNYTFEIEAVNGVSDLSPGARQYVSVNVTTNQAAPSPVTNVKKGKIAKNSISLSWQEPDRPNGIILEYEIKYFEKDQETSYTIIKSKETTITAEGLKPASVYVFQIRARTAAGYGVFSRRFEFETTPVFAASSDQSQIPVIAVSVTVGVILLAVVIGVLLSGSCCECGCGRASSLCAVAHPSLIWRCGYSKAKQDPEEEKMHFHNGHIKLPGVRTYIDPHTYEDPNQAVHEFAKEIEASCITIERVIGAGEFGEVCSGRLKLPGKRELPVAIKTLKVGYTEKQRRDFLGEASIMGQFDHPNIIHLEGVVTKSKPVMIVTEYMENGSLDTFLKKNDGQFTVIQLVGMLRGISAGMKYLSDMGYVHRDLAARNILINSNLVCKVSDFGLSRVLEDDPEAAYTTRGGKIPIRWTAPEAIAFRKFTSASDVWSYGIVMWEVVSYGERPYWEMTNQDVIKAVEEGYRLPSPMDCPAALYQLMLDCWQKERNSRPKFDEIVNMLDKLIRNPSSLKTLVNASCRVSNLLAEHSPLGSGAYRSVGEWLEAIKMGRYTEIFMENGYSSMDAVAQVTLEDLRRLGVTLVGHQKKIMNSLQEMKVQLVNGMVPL
Casein kinase I isoform alpha, sequence (P48729 2-337 limits assumed): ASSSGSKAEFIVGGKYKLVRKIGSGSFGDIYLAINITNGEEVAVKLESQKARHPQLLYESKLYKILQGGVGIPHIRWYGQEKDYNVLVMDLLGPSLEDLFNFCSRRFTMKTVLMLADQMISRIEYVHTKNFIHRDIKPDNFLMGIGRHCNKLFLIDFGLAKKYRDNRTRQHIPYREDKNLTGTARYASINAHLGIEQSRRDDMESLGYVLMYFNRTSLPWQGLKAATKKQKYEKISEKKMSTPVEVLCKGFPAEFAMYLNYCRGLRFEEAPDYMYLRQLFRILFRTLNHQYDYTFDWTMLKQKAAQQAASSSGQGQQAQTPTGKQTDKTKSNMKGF
Mitogen-activated protein kinase 3, sequence (P27361 whole entry): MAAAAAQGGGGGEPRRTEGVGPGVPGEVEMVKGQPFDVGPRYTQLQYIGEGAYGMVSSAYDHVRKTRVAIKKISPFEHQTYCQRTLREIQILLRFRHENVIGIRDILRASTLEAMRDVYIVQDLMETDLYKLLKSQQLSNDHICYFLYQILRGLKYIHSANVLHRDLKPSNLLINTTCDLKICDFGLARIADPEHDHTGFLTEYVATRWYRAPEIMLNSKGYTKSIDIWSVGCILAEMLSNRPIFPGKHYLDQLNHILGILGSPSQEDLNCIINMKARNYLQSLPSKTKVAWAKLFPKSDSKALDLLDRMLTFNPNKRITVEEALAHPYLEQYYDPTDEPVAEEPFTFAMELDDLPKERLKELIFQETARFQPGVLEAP
Tyrosine-protein kinase CSK (Homo sapiens), sequence (P41240 2-450 limits assumed): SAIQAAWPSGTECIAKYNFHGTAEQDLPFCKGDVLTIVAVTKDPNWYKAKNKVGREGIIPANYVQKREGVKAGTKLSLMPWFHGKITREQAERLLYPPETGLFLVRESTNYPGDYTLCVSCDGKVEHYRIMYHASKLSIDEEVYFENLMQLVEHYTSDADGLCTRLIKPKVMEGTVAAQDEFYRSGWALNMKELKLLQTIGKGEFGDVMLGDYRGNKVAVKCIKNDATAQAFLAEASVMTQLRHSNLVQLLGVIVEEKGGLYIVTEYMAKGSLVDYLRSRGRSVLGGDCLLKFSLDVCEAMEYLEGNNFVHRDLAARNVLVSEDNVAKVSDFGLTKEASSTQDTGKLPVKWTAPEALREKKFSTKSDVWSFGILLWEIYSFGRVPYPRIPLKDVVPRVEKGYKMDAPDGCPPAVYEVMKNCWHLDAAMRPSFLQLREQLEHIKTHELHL
Cyclin-dependent kinase 18 (Homo sapiens), sequence (Q07002 whole entry): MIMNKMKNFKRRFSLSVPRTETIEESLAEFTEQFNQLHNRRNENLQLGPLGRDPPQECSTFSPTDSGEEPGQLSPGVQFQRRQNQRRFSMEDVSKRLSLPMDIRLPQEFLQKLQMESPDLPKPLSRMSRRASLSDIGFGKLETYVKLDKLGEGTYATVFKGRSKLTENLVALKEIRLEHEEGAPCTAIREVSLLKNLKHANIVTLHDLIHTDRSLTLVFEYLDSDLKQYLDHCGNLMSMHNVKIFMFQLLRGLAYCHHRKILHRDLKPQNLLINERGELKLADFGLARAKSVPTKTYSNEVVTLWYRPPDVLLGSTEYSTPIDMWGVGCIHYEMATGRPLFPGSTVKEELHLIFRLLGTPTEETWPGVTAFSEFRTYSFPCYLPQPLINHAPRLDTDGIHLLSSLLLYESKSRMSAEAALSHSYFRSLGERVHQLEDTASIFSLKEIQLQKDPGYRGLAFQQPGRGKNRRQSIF
Serine/threonine-protein kinase PLK3, sequence (Q9H4B4 whole entry, looked up): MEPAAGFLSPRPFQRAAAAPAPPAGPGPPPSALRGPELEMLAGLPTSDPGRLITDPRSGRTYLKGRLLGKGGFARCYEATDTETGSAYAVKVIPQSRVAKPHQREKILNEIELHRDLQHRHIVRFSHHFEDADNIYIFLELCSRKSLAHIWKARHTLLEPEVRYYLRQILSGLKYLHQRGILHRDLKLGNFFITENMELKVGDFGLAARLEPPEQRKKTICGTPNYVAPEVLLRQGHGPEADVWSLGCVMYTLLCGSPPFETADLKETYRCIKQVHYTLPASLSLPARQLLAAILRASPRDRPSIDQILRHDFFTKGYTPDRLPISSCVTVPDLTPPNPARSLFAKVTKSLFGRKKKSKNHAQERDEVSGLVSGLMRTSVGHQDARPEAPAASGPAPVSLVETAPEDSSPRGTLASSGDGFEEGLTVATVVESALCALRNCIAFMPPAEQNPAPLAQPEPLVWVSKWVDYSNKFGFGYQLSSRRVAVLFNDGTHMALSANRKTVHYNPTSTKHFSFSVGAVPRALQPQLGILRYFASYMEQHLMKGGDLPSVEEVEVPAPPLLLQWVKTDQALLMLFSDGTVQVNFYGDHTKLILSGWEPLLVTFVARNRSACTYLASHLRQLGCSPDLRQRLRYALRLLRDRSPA
Protein kinase C delta type (Homo sapiens), sequence (Q05655 whole entry, looked up): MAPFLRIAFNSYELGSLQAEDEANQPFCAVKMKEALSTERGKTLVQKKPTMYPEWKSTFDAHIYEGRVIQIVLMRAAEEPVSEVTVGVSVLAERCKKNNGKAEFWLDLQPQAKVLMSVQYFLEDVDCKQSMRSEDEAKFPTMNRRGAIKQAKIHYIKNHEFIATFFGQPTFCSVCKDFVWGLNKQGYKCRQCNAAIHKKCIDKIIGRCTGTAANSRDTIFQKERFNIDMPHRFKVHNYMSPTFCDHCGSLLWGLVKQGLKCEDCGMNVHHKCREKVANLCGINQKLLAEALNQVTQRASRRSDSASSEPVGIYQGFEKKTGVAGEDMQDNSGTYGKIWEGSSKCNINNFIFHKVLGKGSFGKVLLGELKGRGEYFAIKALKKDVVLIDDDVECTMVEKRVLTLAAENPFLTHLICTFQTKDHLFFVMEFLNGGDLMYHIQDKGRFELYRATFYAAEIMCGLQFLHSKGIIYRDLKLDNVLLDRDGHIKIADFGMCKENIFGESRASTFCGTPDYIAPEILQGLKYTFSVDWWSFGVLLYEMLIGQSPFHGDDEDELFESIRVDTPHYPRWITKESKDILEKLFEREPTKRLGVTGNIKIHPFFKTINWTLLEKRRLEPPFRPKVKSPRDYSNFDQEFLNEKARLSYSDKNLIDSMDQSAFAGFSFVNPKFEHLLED

% of control [1]: 17.8%
SMILES: Cn1cc(-n2cnc3c(NCc4nc5cc(Cl)c(Cl)cc5[nH]4)nc(N4CCOCC4)nc32)cn1

SMILES: O=C(NOC[C@H](O)CO)c1ccc(F)c(F)c1Nc1ccc(I)cc1F
% of control [2]: 100%

% of inhibition [3]: 36%
SMILES: CC[C@@H](Nc1c(C#N)c(-c2ccc(-c3cccc(C)c3F)cc2)nc2cnccc12)C(=O)O [BAY-091]

SMILES: CNC(=O)Nc1ccc(-c2nc(N3CC4CCC(C3)O4)c3cnn(C4CCC5(CC4)OCCO5)c3n2)cc1
% of control [4]: 100%
% of control [5]: 92%
% of control [6]: 100%
% of control [7]: 100%

% of inhibition [8]: 6%
% of inhibition [9]: 2%
SMILES: Cc1ccc(-c2ccc3c(ccc4sc5c(c43)NC[C@@H](C)NC5=O)n2)cn1

% of control [10]: 100%
SMILES: CCN(CC)CCCCNc1ncc2cc(-c3cc(OC)cc(OC)c3)c(NC(=O)NC(C)(C)C)nc2n1

% of inhibition [11]: 7.9%
SMILES: CC[C@@H]1[C@H](F)C(=O)N[C@@H]1COc1nccc2cc(C(N)=O)c(OC)cc12 [ZIMLOVISERTIB]

% of control ([12]; at 1 µM): 80%
% of control ([12]; at 5 µM): 31%
SMILES: C=CC(=O)Nc1cccc(C(=O)Nc2ccc(Nc3cc(-c4[nH]c(SC)nc4C)ccn3)cc2)c1

SMILES: COc1cc(Nc2nc(C)cc(-c3cnn4nc(OC)ccc34)n2)cc(C(F)(F)F)c1
% of control [13]: 91%

SMILES: CN(C)C/C=C/C(=O)Nc1ccc(C(=O)N2CCCC(Nc3ncc(Cl)c(-c4c[nH]c5ccccc45)n3)C2)cc1 (stereo not given)
% of control [14]: 97%

SMILES: Nc1cnc(N2CCc3cc(S(=O)(=O)Nc4c(F)cc(Cl)cc4F)cc(N4CCCC4=O)c32)nc1 [TP-020n]
% of control [15]: 100%

SMILES: CCC(=O)N1CCN(c2ccc(-n3c(=O)ccc4cnc5ccc(-c6cnc7ccccc7c6)cc5c43)cc2C(F)(F)F)CC1
% of control [16]: 97%

SMILES: Cc1cc([C@@H](C)Nc2ccccc2C(=O)O)c2nc(N3CCOCC3)cc(=O)n2c1 [AZD-6482]
% of control [17]: 95%
% of control [18]: 89%
% of control [19]: 95%

From ChEMBL document CHEMBL5465560, “Selectivity Literature for EUbOPEN Chemogenomic Library” (2024)
